Measured values published in patent US20210324359A1, “USE OF GRAM-NEGATIVE LYSIN-ANTIMICROBIAL PEPTIDE (AMP) POLYPEPTIDE CONSTRUCTS IN TREATING ENDOCARDITIS” (priority 2020, published 2021).
Where two headings read alike, the source gives them in different places.

What was measured:
[1] = test system: P. aeruginosa PA20 recovered from rabbit lung homogenates; assay type: cell-based, Pseudomonas aeruginosa; settings: n=48
P. aeruginosa PA20 = assay: MIC of GN370 and meropenem against the infecting strain; assay type: cell-based, Pseudomonas aeruginosa; settings: Pseudomonas aeruginosa

In the case of `C[C@@H](O)[C@H]1C(=O)N2C(C(=O)O)=C(S[C@@H]3CN[C@H](C(=O)N(C)C)C3)[C@H](C)[C@H]12` [Meropenem, meropenem, reference compound], the “number of isolates with Meropenem MIC […] μg/mL” value (shortened to “number of isolates”) ([1]; isolates from GN370 (3 mg/kg) + Meropenem (20 mg/kg) group) is reported as 48, the “number of isolates” value ([1]; isolates from GN370 (3 mg/kg) group) is reported as 48 and the “number of isolates” value ([1]; isolates from GN370 (10 mg/kg) + Meropenem (20 mg/kg) group) is reported as 48. The “number of isolates” value ([1]; isolates from GN370 (10 mg/kg) group) was 48, the “number of isolates” value ([1]; isolates from GN370 (30 mg/kg) + Meropenem (20 mg/kg) group) was 48 and the “number of isolates” value ([1]; isolates from GN370 (30 mg/kg) group) was 48. The “number of isolates” value ([1]; isolates from Meropenem (20 mg/kg) group) was 48, the “number of isolates” value ([1]; isolates from Pre-treatment control group) was 48 and the “number of isolates” value ([1]; isolates from Vehicle control group) was 48. The MIC (P. aeruginosa PA20; GN370, read-out: MIC against P. aeruginosa) was 16 µg/mL and the MIC (P. aeruginosa PA20; PA20, read-out: MIC of P. aeruginosa PA20) was 16 µg/mL.
